Test results as given in publication PMC8540349, “GOBP1 from the Variegated Cutworm Peridroma saucia (Hübner) (Lepidoptera: Noctuidae) Displays High Binding Affinities to the Behavioral Attractant (Z)-3-Hexenyl acetate” (Insects, 2021).
Entries after “also recorded” stand apart in the source; their conditions may differ.

What was measured:
recombinant PsauGOBP1 [1] = assay: Fluorescence competitive-binding assay with 1-NPN as probe; parameters: species or system Peridroma saucia; conditions: mean ± SE; for IC50: 1-NPN displacement, Tris-HCl pH 7.4, 25 °C, read-out: IC50 (concentration of ligand halving the initial fluorescence value); for IC50 / Fluorescence (%) at Maximum Concentration: three experiments; for Kd: calculated from IC50 with KD = [IC50]/1 + [1-NPN]/K1-NPN, read-out: KD (calculated dissociation constant); for Fluorescence (%) at Maximum Concentration: remaining 1-NPN fluorescence
Protocol: (§1) Emission fluorescence spectra were recorded on a Hitachi F-4500 at 25 °C, with a 1 cm light path quartz cuvette and 5 nm slits for both excitation and emission. The protein was dissolved in 50 mM Tris-HCl buffer, pH 7.4, and ligands were added as 1 mM methanol solutions. To measure the affinity of the fluorescent ligand N-phenyl-1-naphthylamine (1-NPN) to PsauGOBP1, a […] solution of the protein in 50 mM Tris-HCl, pH 7.4, was titrated with aliquots of 1 mM ligand in methanol to a final concentration of 16 µM. The probe was excited at 337 nm, and emission spectra were recorded between 380 and 450 nm. To analyze the binding affinity of other ligands to PsauGOBP1, a panel of 34 compounds including moth sex pheromones and host plant volatiles were used in the competitive-binding assay. A solution of the protein and 1-NPN, both at the concentration of […], was titrated with 1 mM methanol solutions of each competitor at a concentration of 12 (sex pheromones) or 16 µM (host plant volatiles).
The dissociation constant for 1-NPN and the stoichiometry of binding were obtained by processing the data with GraphPad Prism 6. Dissociation constants of the competitors were calculated from the corresponding IC50 values (concentrations of ligands that reduced the initial fluorescence value of 1-NPN by 50%), using the following equation: KD = [IC50]/1 + [1-NPN]/K1-NPN, where [1-NPN] is the free concentration of 1-NPN, and K1-NPN is the dissociation constant of the protein/1-NPN complex.

P. saucia antennae = assay: Electroantennogram (EAG) recording; parameters: species or system Peridroma saucia; conditions: dose 100 µg, two- to three-day-old males and females, versus paraffin oil control, n = 20
Protocol: Individual synthetic nonanal, citral, farnesol, benzaldehyde, (Z)-3-hexenyl acetate, and (Z)-3-hexen-1-ol was diluted with paraffin oil to make each solution of 10 μg/μL. Each solution was added onto a filter paper (0.2 × 1 cm), and the final loading capacity doses of each solution were 100 μg. A 10 μL volume of paraffin oil was used as the control. Two- to three-day-old male and female P. saucia were used to obtain EAG recordings for the six volatiles. As described by Sun et al. with modification, the antennae were cut from the head and used for electro-signal recordings. After a few segments of the tip were cut off, the antenna was glued to the antenna holder (using conductive gel, Spectra 360, Parker Lab, NJ, USA), and the antenna holder was inserted into the EAG probe. The EAG signal was first amplified with a DC/AC preamplifier (Syntech UN-06), and was further processed with Autospike software (Syntech, Hilversum, the Netherlands).
The EAG data were analyzed using GraphPad Prism 6. The level of significance was set at p < 0.05. Unpaired Student’s t-tests were used to compare the EAG responses of male vs. female P. saucia. For comparison of responses to the six volatiles, the EAG data were first subjected to a one-way ANOVA; this was done separately for males and females. If the ANOVA was significant, means were compared with Tukey’s multiple comparison test.

recombinant PsauGOBP1 [2] = assay: Affinity of fluorescent probe 1-NPN to PsauGOBP1 (direct titration); parameters: species or system Peridroma saucia; conditions: direct titration 2–16 µM 1-NPN, excitation 337 nm; single binding site; means of three replicates; read-out: dissociation constant of 1-NPN
Protocol: as §1
The dissociation constant for 1-NPN and the stoichiometry of binding were obtained by processing the data with GraphPad Prism 6. […]

adult P. saucia = assay: Y-tube olfactometer behavioral bioassay; type: in vivo, Peridroma saucia
Protocol: A Y-tube olfactometer was used to assess the behavioral responses of male and female P. saucia to (Z)-3-hexenyl acetate as described by Yan and Wang with modifications. In brief, the system consisted of a central tube (20 cm long, 6 cm diameter) and two lateral arms (35 cm long, 6 cm diameter). (Z)-3-hexenyl acetate was dissolved in paraffin oil to obtain 10 µg/µL solutions. Filter paper (1 × 2 cm) with 10 µL of sample or 10 µL of paraffin oil was placed in a 250 mL flask. During the test, the room temperature was kept at 24 ± 2 °C with 70% ± 5% humidity and 0.6 lux of red light. […] Moths that moved more than half way along one of the lateral arms and remained for at least 5 s were recorded as having made a choice for the odor offered through that arm. After five individuals were tested, the olfactometer was turned and the flasks were switched in order to avoid positional effects. Tested compounds and paraffin oil were renewed every 5–10 min. The olfactometer and the flask were cleaned with water, ethanol, and acetone at the end of each day.
Chi-squared analyses were performed to determine whether the numbers of P. saucia that made a choice differed between the two odor sources (a 50:50 probability was set for the percentage of moths selecting the control and the test sides. The moths that made no choice were not included in the statistical analysis).

[3] = host plant volatiles, maximum concentration 16 (µM)
[4] = sex pheromones, maximum concentration 12 (µM)

Structure (SMILES) | IC50 (recombinant PsauGOBP1 [1]) | Fluorescence (%) at Maximum Concentration (recombinant PsauGOBP1 [1]; [3]) | also measured
c1ccc(Nc2cccc3ccccc23)cc1 [1-NPN, N-phenyl-1-naphthylamine] | – | – | Kd (recombinant PsauGOBP1 [2]): 1.9 µM
CCC/C=C/C=O [(E)-2-hexenal] | > 20 µM | 64 ± 4% | –
CCC/C=C/COC(C)=O [(E)-2-hexenyl acetate] | > 20 µM | 77 ± 7% | –
C=C1CC/C=C(\C)CC[C@@H]2[C@@H]1CC2(C)C [(E)-caryophyllene] | > 20 µM | 75 ± 1% | –
C=CC(=C)CC/C=C(\C)CCC=C(C)C [(E)-β-farnesene] | > 20 µM | 87 ± 4% | –
CC/C=C\CCO [(Z)-3-hexen-1-ol] | 17.4 ± 1.5 µM | 58 ± 3% | Kd (recombinant PsauGOBP1 [1]): 8.5 ± 0.6 µM; EAG response of male and female antennae (P. saucia antennae): strong responses; also recorded: relatively strong
O=Cc1ccccc1 [Benzaldehyde] | 19.3 ± 1.1 µM | 62 ± 2% | Kd (recombinant PsauGOBP1 [1]): 9.4 ± 0.5 µM; EAG response of male and female antennae (P. saucia antennae): strong responses; also recorded: relatively strong
C=C(C)[C@H]1CC=C(C)CC1 [D-limonene] | > 20 µM | 100 ± 5% | –
CCCCCCCCCC=O [Decanal] | > 20 µM | 85 ± 2% | –
CCCCCCCCCCCCO [Dodecanol] | > 20 µM | 75 ± 8% | –
CC(C)=CCC/C(C)=C/CC/C(C)=C/CO [Farnesol] | 13.1 ± 1.2 µM | 47 ± 4% | Kd (recombinant PsauGOBP1 [1]): 6.4 ± 0.6 µM; EAG response of male and female antennae (P. saucia antennae): weak EAG responses and weak
c1ccc2[nH]ccc2c1 [Indole] | > 20 µM | 70 ± 9% | –
C=CC(C)(O)CCC=C(C)C (stereo not drawn) [Linalool] | > 20 µM | 79 ± 2% | –
COC(=O)c1ccccc1O [Methyl salicylate] | > 20 µM | 73 ± 3% | –
CC(=O)OCCc1ccccc1 [Phenylethyl acetate] | > 20 µM | 64 ± 2% | –
CCCC/C=C\CCCCCCOC(C)=O [Z7-12: Ac] | > 20 µM | – | Fluorescence (%) at Maximum Concentration (recombinant PsauGOBP1 [1]; [4]): 74 ± 4%
CC/C=C\CCCCCCCCOC(C)=O [Z9-12: Ac] | > 20 µM | – | Fluorescence (%) at Maximum Concentration (recombinant PsauGOBP1 [1]; [4]): 72 ± 2%
CCCCCC/C=C\CCCCCCCC=O [Z9-16: Ald] | > 20 µM | – | Fluorescence (%) at Maximum Concentration (recombinant PsauGOBP1 [1]; [4]): 82 ± 3%
CCCC/C=C\CCCCCCCCCC=O [Z11-16: Ald] | > 20 µM | – | Fluorescence (%) at Maximum Concentration (recombinant PsauGOBP1 [1]; [4]): 89 ± 1%

Second part, led by results:

IC50 (recombinant PsauGOBP1 [1]) | Fluorescence (%) at Maximum Concentration (recombinant PsauGOBP1 [1]; [3]) | Structure (SMILES) | also measured
11.5 ± 1 µM | 40 ± 3% | CC(C)=CCCC(C)=CC=O (mixture of isomers) [Citral] | Kd (recombinant PsauGOBP1 [1]): 5.6 ± 0.4 µM; EAG response of male and female antennae (P. saucia antennae): weak EAG responses and weak
> 20 µM | 67 ± 2% | CCC/C=C/CO [(E)-2-hexen-1-ol] | –
8.2 ± 0.2 µM | 19 ± 2% | CC/C=C\CCOC(C)=O [(Z)-3-hexenyl acetate] | Kd (recombinant PsauGOBP1 [1]): 4 ± 0.1 µM; EAG response of male and female antennae (P. saucia antennae): strongest responses; also recorded: strongest EAG response; also recorded: strong responses; percentage of females showing chemotaxis to the compound (adult P. saucia; females, 10 µL of 10 µg/µL in paraffin oil versus paraffin oil, Y-tube): 68%; behavioral response (attraction) of both sexes (adult P. saucia; males and females, choice versus paraffin oil, chi-squared test): attractive; also recorded: attracted; also recorded: significant attraction; percentage of males showing chemotaxis to the compound (adult P. saucia; males, 10 µL of 10 µg/µL in paraffin oil versus paraffin oil, Y-tube): 64%
> 20 µM | 83 ± 5% | CC/C=C\CC1=C(C)CCC1=O [(Z)-jasmone] | –
> 20 µM | 65 ± 4% | CCCCCCCO [Heptanol] | –
> 20 µM | 68 ± 3% | CC/C=C\C[C@H]1C(=O)CC[C@@H]1CC(=O)O [Jasmonic acid] | –
> 20 µM | 80 ± 5% | CC/C=C\CC1C(=O)CCC1CC(=O)OC (stereo not drawn) [Methyl jasmonate] | –
13.9 ± 0.6 µM | 50 ± 2% | CCCCCCCCC=O [Nonanal] | Kd (recombinant PsauGOBP1 [1]): 6.8 ± 0.3 µM; EAG response of male and female antennae (P. saucia antennae): weak EAG responses and weak
> 20 µM | 74 ± 7% | C=CC(C)=CCC=C(C)C [Ocimene] | –
> 20 µM | 61 ± 6% | CCCCCCCC=O [Octanal] | –
> 20 µM | – | CCCC/C=C\CCCCCCCCOC(C)=O [Z9-14: Ac] | Fluorescence (%) at Maximum Concentration (recombinant PsauGOBP1 [1]; [4]): 78 ± 2%
> 20 µM | – | CCCCCC/C=C\CCCCCCCCO [Z9-16: OH] | Fluorescence (%) at Maximum Concentration (recombinant PsauGOBP1 [1]; [4]): 76 ± 1%
> 20 µM | – | CCCC/C=C\CCCCCCCCCCOC(C)=O [Z11-16: Ac] | Fluorescence (%) at Maximum Concentration (recombinant PsauGOBP1 [1]; [4]): 70 ± 2%
> 20 µM | – | CCCC/C=C\CCCCCCCCCCO [Z11-16: OH] | Fluorescence (%) at Maximum Concentration (recombinant PsauGOBP1 [1]; [4]): 70 ± 5%
> 20 µM | 94 ± 1% | C=CC(=C)CCC=C(C)C [β-myrcene] | –
> 20 µM | 100 ± 2% | C=C1CCC2CC1C2(C)C (stereo not drawn) [β-pinene] | –
